According to PMC10975527 (Viruses, 2024):
Values after ≈ are worked out from the molar mass of the structure shown. Read-outs that look alike come from different tables or passages of the source.

Legend:
[1] = target: T1, recombinant human PAPD5 (Homo sapiens, UniProt Q8NDF8); assay: PAPD5 ATP depletion assay; assay type: biochemical; conditions: 12.5 nM enzyme, 750 nM ATP, 3 h, mean of 3 experiments; read-out: IC50, PAPD5-mediated incorporation of ATP
T1 construct: made in house

[2] = Tolerability in AAV-HBV mice; conditions: once-daily dosing for 14 days
[3] = tested on: HEp2 (human epithelial)
[4] = in vitro; assay type: in vitro ADME; conditions: mouse
[5] = tested on: Sprague Dawley rats; assay: 13-week repeat-dose toxicity study in rats; assay type: in vivo
[6] = in vitro; assay type: in vitro ADME; conditions: dog, plasma
[7] = tested on: HBV; assay: HBV life cycle analysis in HepG2.2.15 cells; assay type: cell-based, hepatitis B virus; conditions: ETV 1 μM, GLS4 1 μM, AB-161 100 nM
[8] = in vitro; assay type: in vitro ADME; conditions: monkey, plasma
[9] = in vitro; assay type: in vitro ADME; conditions: rat, plasma
[10] = tested on: HBV; assay: HBV-infected primary human hepatocytes (PHH) antiviral assay; assay type: cell-based; conditions: Hepatitis B virus, Hepatocyte, genotype D
[11] = tested on: HBV; assay: Effective concentration mediating 90% inhibition (EC90), system not given; assay type: cell-based; conditions: Hepatitis B virus; used for comparison with unbound concentrations; cell system not stated
[12] = in vitro; assay type: in vitro ADME; conditions: human
[13] = tested on: HRV; assay: Antiviral selectivity panel: HRV; assay type: cell-based; conditions: Human rhinovirus sp., HEp-2; HEp2 (human epithelial)
[14] = male, C57BL/6J, mouse, in vivo, 24 h
[15] = in vitro; conditions: monkey
[16] = in vitro; conditions: bovine
[17] = tested on: HBV pgRNA and preS/S RNA; assay: Northern blot of intracellular HBV RNA in HepG2.2.15 cells; assay type: cell-based; conditions: Hepatitis B virus, HepG2.2.15, 48 h
[18] = tested on: HSV-1/HSV-2; assay: Antiviral selectivity panel: HSV-1/HSV-2; assay type: cell-based, herpes simplex virus-1/herpes simplex virus-2; conditions: MRC5; MRC-5 (human lung)
[19] = tested on: HBV; assay: HBV antiviral assay in HepG2.2.15 cells (HBsAg/HBeAg CLIA, secreted HBV DNA PCR); assay type: cell-based; conditions: Hepatitis B virus, HepG2.2.15, genotype D
[20] = tested on: HBsAg expressed from integrated HBV; assay: HBsAg from integrated HBV in PLC/PRF/5 cells; assay type: cell-based; conditions: Hepatitis B virus, PLC-PRF-5, read-out: HBsAg EC50
[21] = tested on: HBV; assay: HBV-infected HepG2-hNTCP antiviral assay; assay type: cell-based; conditions: Hepatitis B virus, genotype D
[22] = tested on: HCMV; assay: Antiviral selectivity panel: HCMV; assay type: cell-based, human cytomegalovirus; conditions: Human betaherpesvirus 5, MRC5; MRC-5 (human lung)
[23] = tested on: HIV; assay: Antiviral selectivity panel: HIV; assay type: cell-based; conditions: Human immunodeficiency virus 1; CEM-22 (human T lymphoblast)
[24] = read-out: HBV RNA EC50 (converted)
[25] = read-out: HBeAg EC50 (converted)

T1 sequence (Q8NDF8 106-438 limits assumed): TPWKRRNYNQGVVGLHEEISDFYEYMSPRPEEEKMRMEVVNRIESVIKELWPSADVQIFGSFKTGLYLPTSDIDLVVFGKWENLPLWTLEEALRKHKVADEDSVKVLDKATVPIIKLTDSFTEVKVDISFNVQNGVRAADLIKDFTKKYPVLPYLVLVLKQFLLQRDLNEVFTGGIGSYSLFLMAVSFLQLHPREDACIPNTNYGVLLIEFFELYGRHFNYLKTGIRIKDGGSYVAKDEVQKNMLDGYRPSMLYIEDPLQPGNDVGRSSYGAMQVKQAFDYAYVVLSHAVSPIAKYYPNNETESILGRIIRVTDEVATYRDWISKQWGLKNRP

Which IC50 [1] does the source give for `COc1cc(OC(F)F)c2nc3c(n2c1)C[C@@H](C(C)(C)C)c1cc(C(=O)O)c(=O)[nH]c1-3` [AB-161] here?
Its IC50 is 850 nM.

And the tolerability [2]?
Its tolerability is “well-tolerated”.

What about the CC50 [3] of the same molecule?
The CC50 was > 30000 nM.

And the “AB-161 estimated to be free” value ([4]; 6 h, 500 ng/mL)?
The value was 2.4%.

What about the fraction unbound at 6 h, 500 ng/mL ([4]; plasma) of the same molecule?
The fraction unbound at 6 h, 500 ng/mL was 0.024.

What about the fraction-unbound factor ([4]; plasma, 6 h, 500 ng/mL) of the same molecule?
The fraction-unbound factor was 0.024.

And the reproductive safety findings ([5]; male or female rats, 13-week administration, all doses)?
Its reproductive safety findings is “no reproductive safety findings”.

What about the motor nerve conduction ([5]; rats) of the same molecule?
Its motor nerve conduction is “No differences from baseline or time-matched controls”.

And the “sensory nerve conduction velocity (NCV)” value ([5]; rats, 500 mg/kg, day 70 and day 119, considered non-adverse)?
Its value is “NCV delays were noted”.

What about the fraction unbound at 6 h, 500 ng/mL [6] of the same molecule?
Its fraction unbound at 6 h, 500 ng/mL is 0.047.

What about the “HBV DNA replication” value [7] of the same molecule?
The value was “inhibited”.

What about the “intracellular HBV RNA (pgRNA, preS/S RNA)” value [7] of the same molecule?
The value was “inhibited”.

And the “viral proteins: HBV core and capsid assembly” value [7]?
Its value is “inhibited”.

And the fraction unbound at 6 h, 500 ng/mL [8]?
The fraction unbound at 6 h, 500 ng/mL was 0.02.

What about the fraction unbound at 6 h, 500 ng/mL [9] of the same molecule?
Its fraction unbound at 6 h, 500 ng/mL is 0.056.

And the EC50 [10, 24]?
The EC50 was 9.6 nM.

And the EC50 [10, 25]?
The EC50 was 11.9 nM.

And the EC50 ([10]; read-out: HBsAg EC50)?
Its EC50 is 8.5 ± 4.7 nM.

What about the EC90 [11] of the same molecule?
The EC90 was 0.0128 µg/mL (≈ 0.0295 µM).

And the “plasma protein binding, bound” value ([12]; 6 h, 500 ng/mL)?
Its value is 95%.

What about the fraction unbound at 6 h, 500 ng/mL ([12]; plasma, plasma protein binding, bound) of the same molecule?
Its fraction unbound at 6 h, 500 ng/mL is 0.049.

And the EC50 [13]?
The EC50 was > 30000 nM.

And the “fraction unbound AB-161 in plasma (C24h) below its EC90” value [14]?
Its value is “at least 1 log10”.

What about the CC50 [15] of the same molecule?
Its CC50 is > 30000 nM.

What about the CC50 [16] of the same molecule?
Its CC50 is > 30000 nM.

And the EC50 ([17]; read-out: EC50, steady state level of pgRNA (3.5 kb))?
The EC50 was 6.9 to 21 nM.

What about the EC50 ([17]; read-out: EC50, steady state level of preS/S RNA (2.4/2.1 kb)) of the same molecule?
Its EC50 is 2.3 to 6.9 nM.

What about the EC50 [18] of the same molecule?
Its EC50 is > 30000 nM.

What about the EC50 ([19]; 144 h, 6-day incubation, read-out: HBsAg EC50) of the same molecule?
The EC50 was 2.3 ± 1 nM.

What about the EC50 ([19]; secreted HBV DNA, read-out: HBV DNA EC50 (converted)) of the same molecule?
The EC50 was 0.36 nM.

And the EC50 ([19]; with 40% human serum, read-out: HBsAg (40% human serum) EC50 (converted))?
The EC50 was 63 nM.

And the EC50 [19, 25]?
The EC50 was 13.7 nM.

And the EC50 [20]?
The EC50 was 5.9 ± 2.5 nM.

And the EC50 [21, 24]?
The EC50 was 30.1 nM.

What about the EC50 [21, 25] of the same molecule?
The EC50 was 20.9 nM.

And the EC50 ([21]; read-out: HBsAg EC50)?
Its EC50 is 25.3 ± 10.9 nM.

What about the EC50 [22] of the same molecule?
The EC50 was > 30000 nM.

And the EC50 [23]?
The EC50 was > 30000 nM.
